Experimental data published in PubChem BioAssay (NCI).
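Dose response: 5 concentrations. Exposure: 48 h. Format: 96-well plates. Endpoint: linear interpolation; highest concentration if not reached. Here, GI50 denotes the concentration required for 50% inhibition of growth. TGI denotes the concentration required for complete inhibition of growth.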

How the values were obtained:
Assay in all cases: NCI anticancer screen, dose series, 48 h
ACHN renal = test system: ACHN renal
NCI/ADR-RES ovarian = test system: NCI/ADR-RES ovarian
RXF 393 renal = test system: RXF 393 renal
SF-539 CNS = test system: SF-539 CNS
SNB-19 CNS = test system: SNB-19 CNS
NCI-H23 lung = test system: NCI-H23 lung
786-0 renal = test system: 786-0 renal
HCT-15 colon = test system: HCT-15 colon
OVCAR-8 ovarian = test system: OVCAR-8 ovarian
DU-145 prostate = test system: DU-145 prostate
OVCAR-3 ovarian = test system: OVCAR-3 ovarian
EKVX NSCLC = test system: EKVX NSCLC
SF-268 CNS = test system: SF-268 CNS
HOP-62 NSCLC = test system: HOP-62 NSCLC
PC-3 prostate = test system: PC-3 prostate
SK-MEL-2 melanoma = test system: SK-MEL-2 melanoma
BT-549 breast = test system: BT-549 breast
SF-295 CNS = test system: SF-295 CNS
MDA-MB-435 = test system: MDA-MB-435
SK-OV-3 ovarian = test system: SK-OV-3 ovarian
SK-MEL-5 melanoma = test system: SK-MEL-5 melanoma
M14 melanoma = test system: M14 melanoma
UO-31 renal = test system: UO-31 renal
CAKI-1 renal = test system: CAKI-1 renal
NCI-H460 lung = test system: NCI-H460 lung
T-47D breast = test system: T-47D breast
SN12C renal = test system: SN12C renal
A498 renal = test system: A498 renal
SR leukemia = test system: SR leukemia
U251 CNS = test system: U251 CNS
SNB-75 CNS = test system: SNB-75 CNS
NCI-H226 lung = test system: NCI-H226 lung
OVCAR-5 ovarian = test system: OVCAR-5 ovarian
SW-620 colon = test system: SW-620 colon
CCRF-CEM leukemia = test system: CCRF-CEM leukemia
MCF7 breast = test system: MCF7 breast
K-562 leukemia = test system: K-562 leukemia
HS 578T breast = test system: HS 578T breast
HCC-2998 colon = test system: HCC-2998 colon
NCI-H522 lung = test system: NCI-H522 lung
TK-10 renal = test system: TK-10 renal
UACC-257 melanoma = test system: UACC-257 melanoma
IGROV1 ovarian = test system: IGROV1 ovarian
KM12 colon = test system: KM12 colon
A549 NSCLC = test system: A549 NSCLC
COLO 205 colon = test system: COLO 205 colon
HCT-116 colon = test system: HCT-116 colon
MOLT-4 leukemia = test system: MOLT-4 leukemia
UACC-62 melanoma = test system: UACC-62 melanoma
MDA-MB-231 breast = test system: MDA-MB-231 breast
HOP-92 NSCLC = test system: HOP-92 NSCLC
SK-MEL-28 melanoma = test system: SK-MEL-28 melanoma
HL-60(TB) leukemia = test system: HL-60(TB) leukemia
LOX IMVI melanoma = test system: LOX IMVI melanoma
MALME-3M melanoma = test system: MALME-3M melanoma
OVCAR-4 ovarian = test system: OVCAR-4 ovarian
HT29 colon = test system: HT29 colon

**Q.** Which GI50 (ACHN renal) does the source give for `CC(=O)[C@@]1(O)[C@H](C)C[C@H]2[C@@H]3C=C(C)C4=Cc5c(cnn5-c5ccccc5)C[C@]4(C)[C@H]3[C@@H](O)C[C@@]21C` here?
**A.** 2.75 µM

**Q.** And the TGI (ACHN renal)?
**A.** 11.3 µM

**Q.** And the GI50 (NCI/ADR-RES ovarian)?
**A.** 1.91 µM

**Q.** And the TGI (NCI/ADR-RES ovarian)?
**A.** 9.75 µM

**Q.** And the GI50 (RXF 393 renal)?
**A.** 1.31 µM

**Q.** And the TGI (RXF 393 renal)?
**A.** 6.42 µM

**Q.** What about the GI50 (SF-539 CNS) of the same compound?
**A.** 1.22 µM

**Q.** And the TGI (SF-539 CNS)?
**A.** 2.85 µM

**Q.** And the GI50 (SNB-19 CNS)?
**A.** 3.29 µM

**Q.** What about the TGI (SNB-19 CNS) of the same compound?
**A.** 14.2 µM

**Q.** And the GI50 (NCI-H23 lung)?
**A.** 2.48 µM

**Q.** What about the TGI (NCI-H23 lung) of the same compound?
**A.** 9.96 µM

**Q.** And the GI50 (786-0 renal)?
**A.** 2.23 µM

**Q.** And the TGI (786-0 renal)?
**A.** 5.2 µM

**Q.** And the GI50 (HCT-15 colon)?
**A.** 0.81 µM

**Q.** What about the TGI (HCT-15 colon) of the same compound?
**A.** 2.66 µM

**Q.** And the GI50 (OVCAR-8 ovarian)?
**A.** 2.8 µM

**Q.** What about the TGI (OVCAR-8 ovarian) of the same compound?
**A.** 13.8 µM

**Q.** What about the GI50 (DU-145 prostate) of the same compound?
**A.** 3.24 µM

**Q.** And the TGI (DU-145 prostate)?
**A.** 14 µM

**Q.** And the GI50 (OVCAR-3 ovarian)?
**A.** 2.08 µM

**Q.** What about the TGI (OVCAR-3 ovarian) of the same compound?
**A.** 4.84 µM

**Q.** And the GI50 (EKVX NSCLC)?
**A.** 1.25 µM

**Q.** What about the TGI (EKVX NSCLC) of the same compound?
**A.** 11.4 µM

**Q.** And the GI50 (SF-268 CNS)?
**A.** 2.81 µM

**Q.** And the TGI (SF-268 CNS)?
**A.** 16.6 µM

**Q.** And the GI50 (HOP-62 NSCLC)?
**A.** 3.58 µM

**Q.** What about the TGI (HOP-62 NSCLC) of the same compound?
**A.** 9.75 µM

**Q.** What about the GI50 (PC-3 prostate) of the same compound?
**A.** 2.06 µM

**Q.** And the TGI (PC-3 prostate)?
**A.** 10.1 µM

**Q.** And the GI50 (SK-MEL-2 melanoma)?
**A.** 2.45 µM

**Q.** What about the TGI (SK-MEL-2 melanoma) of the same compound?
**A.** 5.88 µM

**Q.** And the GI50 (BT-549 breast)?
**A.** 1.29 µM

**Q.** What about the TGI (BT-549 breast) of the same compound?
**A.** 5.17 µM

**Q.** What about the GI50 (SF-295 CNS) of the same compound?
**A.** 1.73 µM

**Q.** And the TGI (SF-295 CNS)?
**A.** 3.53 µM

**Q.** And the GI50 (MDA-MB-435)?
**A.** 2.44 µM

**Q.** What about the TGI (MDA-MB-435) of the same compound?
**A.** 8.7 µM

**Q.** And the GI50 (SK-OV-3 ovarian)?
**A.** 0.76 µM

**Q.** And the TGI (SK-OV-3 ovarian)?
**A.** 10.5 µM

**Q.** What about the GI50 (SK-MEL-5 melanoma) of the same compound?
**A.** 1.61 µM

**Q.** What about the TGI (SK-MEL-5 melanoma) of the same compound?
**A.** 4.21 µM

**Q.** And the GI50 (M14 melanoma)?
**A.** 2.84 µM

**Q.** And the TGI (M14 melanoma)?
**A.** 13.6 µM

**Q.** And the GI50 (UO-31 renal)?
**A.** 2.08 µM

**Q.** What about the TGI (UO-31 renal) of the same compound?
**A.** 7.03 µM

**Q.** What about the GI50 (CAKI-1 renal) of the same compound?
**A.** 2.46 µM

**Q.** And the TGI (CAKI-1 renal)?
**A.** 6.44 µM

**Q.** And the GI50 (NCI-H460 lung)?
**A.** 1.4 µM

**Q.** What about the TGI (NCI-H460 lung) of the same compound?
**A.** 3.69 µM

**Q.** And the GI50 (T-47D breast)?
**A.** 2.3 µM

**Q.** And the TGI (T-47D breast)?
**A.** 10.3 µM

**Q.** And the GI50 (SN12C renal)?
**A.** 1.4 µM

**Q.** What about the TGI (SN12C renal) of the same compound?
**A.** 12.4 µM

**Q.** What about the GI50 (A498 renal) of the same compound?
**A.** 3.45 µM

**Q.** And the TGI (A498 renal)?
**A.** 14.7 µM

**Q.** And the GI50 (SR leukemia)?
**A.** 1.77 µM

**Q.** And the GI50 (U251 CNS)?
**A.** 1.51 µM

**Q.** And the TGI (U251 CNS)?
**A.** 6.23 µM

**Q.** What about the GI50 (SNB-75 CNS) of the same compound?
**A.** 2.65 µM

**Q.** What about the TGI (SNB-75 CNS) of the same compound?
**A.** 11 µM

**Q.** What about the GI50 (NCI-H226 lung) of the same compound?
**A.** 2.5 µM

**Q.** And the TGI (NCI-H226 lung)?
**A.** 15.7 µM

**Q.** And the GI50 (OVCAR-5 ovarian)?
**A.** 1.52 µM

**Q.** What about the TGI (OVCAR-5 ovarian) of the same compound?
**A.** 5.76 µM

**Q.** And the GI50 (SW-620 colon)?
**A.** 1.91 µM

**Q.** And the TGI (SW-620 colon)?
**A.** 4.27 µM

**Q.** And the TGI (CCRF-CEM leukemia)?
**A.** 1.72 µM

**Q.** And the GI50 (MCF7 breast)?
**A.** 1.97 µM

**Q.** What about the TGI (MCF7 breast) of the same compound?
**A.** 11 µM

**Q.** And the GI50 (K-562 leukemia)?
**A.** 0.659 µM

**Q.** What about the GI50 (HS 578T breast) of the same compound?
**A.** 2.97 µM

**Q.** And the TGI (HS 578T breast)?
**A.** 12.9 µM

**Q.** What about the GI50 (HCC-2998 colon) of the same compound?
**A.** 2.13 µM

**Q.** And the TGI (HCC-2998 colon)?
**A.** 5.73 µM

**Q.** And the GI50 (NCI-H522 lung)?
**A.** 2.83 µM

**Q.** And the TGI (NCI-H522 lung)?
**A.** 8.85 µM

**Q.** What about the GI50 (TK-10 renal) of the same compound?
**A.** 1.97 µM

**Q.** What about the TGI (TK-10 renal) of the same compound?
**A.** 6.08 µM

**Q.** What about the GI50 (UACC-257 melanoma) of the same compound?
**A.** 4.06 µM

**Q.** And the TGI (UACC-257 melanoma)?
**A.** 13.4 µM

**Q.** What about the GI50 (IGROV1 ovarian) of the same compound?
**A.** 2.64 µM

**Q.** What about the TGI (IGROV1 ovarian) of the same compound?
**A.** 11 µM

**Q.** And the GI50 (KM12 colon)?
**A.** 1.69 µM

**Q.** And the TGI (KM12 colon)?
**A.** 4.5 µM

**Q.** And the GI50 (A549 NSCLC)?
**A.** 1.82 µM

**Q.** What about the TGI (A549 NSCLC) of the same compound?
**A.** 13.9 µM

**Q.** And the GI50 (COLO 205 colon)?
**A.** 1.86 µM

**Q.** And the TGI (COLO 205 colon)?
**A.** 3.93 µM

**Q.** What about the GI50 (HCT-116 colon) of the same compound?
**A.** 2.46 µM

**Q.** What about the TGI (HCT-116 colon) of the same compound?
**A.** 11.4 µM

**Q.** What about the GI50 (MOLT-4 leukemia) of the same compound?
**A.** 0.842 µM

**Q.** What about the TGI (MOLT-4 leukemia) of the same compound?
**A.** 8.7 µM

**Q.** What about the GI50 (UACC-62 melanoma) of the same compound?
**A.** 2.24 µM

**Q.** And the TGI (UACC-62 melanoma)?
**A.** 5.76 µM

**Q.** And the GI50 (MDA-MB-231 breast)?
**A.** 2.04 µM

**Q.** What about the TGI (MDA-MB-231 breast) of the same compound?
**A.** 5.4 µM

**Q.** And the GI50 (HOP-92 NSCLC)?
**A.** 2.42 µM

**Q.** And the TGI (HOP-92 NSCLC)?
**A.** 14 µM

**Q.** What about the GI50 (SK-MEL-28 melanoma) of the same compound?
**A.** 3.22 µM

**Q.** What about the TGI (SK-MEL-28 melanoma) of the same compound?
**A.** 13 µM

**Q.** And the GI50 (HL-60(TB) leukemia)?
**A.** 3.62 µM

**Q.** And the TGI (HL-60(TB) leukemia)?
**A.** 41.9 µM

**Q.** What about the GI50 (LOX IMVI melanoma) of the same compound?
**A.** 1.69 µM

**Q.** And the TGI (LOX IMVI melanoma)?
**A.** 4.6 µM

**Q.** What about the GI50 (MALME-3M melanoma) of the same compound?
**A.** 1.76 µM

**Q.** And the TGI (MALME-3M melanoma)?
**A.** 5.36 µM

**Q.** And the GI50 (OVCAR-4 ovarian)?
**A.** 3.85 µM

**Q.** What about the TGI (OVCAR-4 ovarian) of the same compound?
**A.** 31.1 µM

**Q.** And the GI50 (HT29 colon)?
**A.** 0.946 µM

**Q.** And the TGI (HT29 colon)?
**A.** 4.38 µM
